From PMC7006677 (Pharmacological reports : PR, 2020)
pIC50: −log10 of the molar value.

What was measured:
Format in all cases: cell-based
[1] = biological target: T1, GABAA receptor (α1β3γ2L), β3 subunit (Homo sapiens, UniProt P14867+P18507+P28472); experiment: two-electrode voltage clamp
[2] = biological target: T1, GABAA receptor (α1β3γ2L), β3 subunit; experiment: two-electrode voltage clamp; remark: listed apart in the source
[3] = biological target: T1, GABAA receptor (α1β3γ2L), β3 subunit; experiment: two-electrode voltage clamp in oocytes

T1 sequence (P28472 26-473): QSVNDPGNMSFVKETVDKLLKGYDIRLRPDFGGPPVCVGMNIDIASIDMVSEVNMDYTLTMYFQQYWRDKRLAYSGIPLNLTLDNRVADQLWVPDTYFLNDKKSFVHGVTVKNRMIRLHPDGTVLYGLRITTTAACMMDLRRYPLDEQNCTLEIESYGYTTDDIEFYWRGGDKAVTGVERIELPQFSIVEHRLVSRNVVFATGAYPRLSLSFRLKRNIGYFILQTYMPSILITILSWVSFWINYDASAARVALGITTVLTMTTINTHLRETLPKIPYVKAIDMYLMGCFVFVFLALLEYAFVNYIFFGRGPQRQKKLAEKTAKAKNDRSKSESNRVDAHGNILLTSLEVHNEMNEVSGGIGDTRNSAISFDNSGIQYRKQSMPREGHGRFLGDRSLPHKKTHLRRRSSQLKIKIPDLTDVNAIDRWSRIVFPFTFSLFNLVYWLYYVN
T1 sequence (P14867 28-456): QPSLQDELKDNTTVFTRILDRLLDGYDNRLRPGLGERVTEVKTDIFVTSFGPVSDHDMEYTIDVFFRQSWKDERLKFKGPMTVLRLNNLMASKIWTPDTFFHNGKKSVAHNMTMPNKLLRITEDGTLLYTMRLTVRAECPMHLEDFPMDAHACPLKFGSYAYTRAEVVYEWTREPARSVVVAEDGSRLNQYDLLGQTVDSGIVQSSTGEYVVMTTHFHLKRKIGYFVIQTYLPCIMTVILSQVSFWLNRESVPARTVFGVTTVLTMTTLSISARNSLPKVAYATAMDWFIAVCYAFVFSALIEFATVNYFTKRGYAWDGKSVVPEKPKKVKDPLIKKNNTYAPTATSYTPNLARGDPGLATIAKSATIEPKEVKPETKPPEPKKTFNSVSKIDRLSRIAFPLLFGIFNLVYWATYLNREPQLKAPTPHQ
T1 sequence (P18507 40-475): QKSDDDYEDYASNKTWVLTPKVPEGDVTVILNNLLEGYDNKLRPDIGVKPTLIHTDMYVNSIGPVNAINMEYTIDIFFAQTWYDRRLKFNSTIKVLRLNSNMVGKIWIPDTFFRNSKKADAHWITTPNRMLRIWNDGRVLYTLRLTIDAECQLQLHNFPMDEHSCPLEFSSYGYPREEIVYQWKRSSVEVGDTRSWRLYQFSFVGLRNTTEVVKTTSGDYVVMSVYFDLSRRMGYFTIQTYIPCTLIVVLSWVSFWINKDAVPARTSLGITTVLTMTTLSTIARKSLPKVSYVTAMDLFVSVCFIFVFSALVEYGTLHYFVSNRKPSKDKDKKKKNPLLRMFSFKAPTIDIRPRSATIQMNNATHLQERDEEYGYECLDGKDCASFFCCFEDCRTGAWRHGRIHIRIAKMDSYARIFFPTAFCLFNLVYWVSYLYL

| Molecule | two-electrode voltage clamp; potentiation of EC5 GABA currents, reversed by naph [1] | further results |
| --- | --- | --- |
| OCC(Cl)(Cl)Cl [2,2,2-Trichloroethanol] | ~ 2 mM | – |
| CCOC(=O)Nc1ccc(NCc2c(C)cc(C)cc2C)cc1N [AA29504] | ~ 1 μM | – |
| CC(=O)[C@H]1CC[C@H]2[C@@H]3CC[C@H]4C[C@H](O)CC[C@]4(C)[C@H]3C(=O)C[C@]12C [Alphaxalone] | ~ 2 μM | – |
| FC(F)OC(Cl)C(F)(F)F (stereo not shown) [Isoflurane] | ~ 1.5 mM | – |
| Cl/C(=C\n1cncn1)c1ccc(Cl)cc1Cl [Loreclezole] | ~ 10 μM | – |
| NCc1cc(=O)[nH]o1 [Muscimol] | – | two-electrode voltage clamp; potentiation of EC5 GABA currents, not reversed by [2]: ~ 3 μM |
| naphthalene-etomidate | – | pIC50 [3]: 4.12 |
